Structures are written as SMILES. Where two headings read alike, the source gives them in different places.

Data set [1] concerns mutant protease D168A. Nature of the data set: Resistance profile, mutant protease D168A. It is filed as biochemical, HCV. The following applies: ratio of inhibitory activity against mutant enzyme over non-mutant enzyme. The procedure:
(§1) General procedure: Measurement of the inhibitory effect of compounds on HCV protease activity was performed with the SensoLyte™ 620 HCV Protease Assay kit from AnaSpec, Inc. (San Jose, Calif.) under conditions described by the supplier using 1.2 nM HCV NS3-NS4A protease, which was obtained according to Taremi et al. (Protein Science, 1998, 7, 2143-2149). The compounds were tested at a variety of concentrations in assay buffer containing a final DMSO concentration of 5%. Reactions were allowed to proceed for 60 min at room temperature and fluorescence measurements were recorded with a Tecan Infinity Spectrofluorimeter. The IC50 values were determined from the percent inhibition versus concentration data using a sigmoidal non-linear regression analysis based on four parameters with Tecan Magellan software.
(§2) Compounds were evaluated against three mutant proteases R155Q, A156S, and D168A, as summarized in Table 8, wherein A represents a value smaller than 1, and B represents a value between 1 to 10, and C represents a value greater than 10. The fold of change in inhibitory activity was determined by measuring the ratio of the inhibitory activity of a compound against a mutant enzyme over the inhibitory activity of the same compound against non-mutant enzyme. The inhibitory activity was determined using the procedure as described in Example 31.

Data set [2] deals with T1, HCV NS3-NS4A protease (Hepatitis C virus genotype 1b, UniProt P26663).
T1 construct: made in house
Nature of the data set: HCV Protease Assay (SensoLyte 620 HCV Protease Assay kit). It is filed as biochemical. The following applies: 1.2 nM HCV NS3-NS4A protease, 60 min at room temperature, 5% DMSO. The method in brief:
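Protease at 1.2 nM, run with the SensoLyte 620 fluorogenic kit under supplier conditions, with compounds at several concentrations in buffer with 5% final DMSO. Reactions ran 60 min at room temperature before fluorescence reading; IC50 from four-parameter sigmoidal fit of percent inhibition.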

The test system of data set [3] is Huh-7 cells containing HCV Con1 subgenomic replicon (GS4.1 cells). Nature of the data set: HCV Replicon Assay (NS4A ELISA). It is filed as cell-based. The following applies: Hepatitis C virus, Huh-7, 72 hr, NS4A protein by ELISA. The method in brief:
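GS4.1 cells (Huh-7 with HCV Con1 subgenomic replicon) given ten 2-fold compound dilutions (top 75 μM) or a single 15 μM dose in 0.5% DMSO for 72 h at 37 °C. NS4A measured by cell ELISA (A492); EC50 from four-parameter sigmoidal fit, single-dose results as % inhibition at 15 μM.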
For orientation: In antiviral work, replicon cells carry a viral genome segment that copies itself.

Data set [4] in a line: Cytotoxicity evaluation (Cell Titer 96 AQueous One Solution Cell Proliferation Assay). The class given is cell-based. The following applies: human; GS4.1 cells, cellular viability. The protocol:
(§3) For cytotoxicity evaluation, GS4.1 cells were treated with compounds as described above and cellular viability was monitored using the Cell Titer 96 AQueous One Solution Cell Proliferation Assay (Promega). CC50 values were determined from the % cytotoxicity versus concentration data with Tecan Magellan software as described above.

Data set [5] has as its system HCV genotype 2a infectious virus. Put plainly: HCV genotype 2a infectious virus assay. The class given is cell-based, HCV (strain JFH-1; genotype 2a). The following applies: Hepatitis C virus. The procedure:
Compounds were tested in a HCV genotype 2a infectious virus assay and the results are summarized in Table 7, wherein A represents a value smaller than 1 μM, and B represents a value between 1 μM to 10 μM, C represents a value between 10 μM to 75 μM and D represents a value greater than 75 μM.
The HCV in vitro infection core ELISA assay measures the ability of a test compound to inhibit replication of an infectious HCV (strain JFH-1; genotype 2a) in cell culture. […] We have developed this model for determining the efficacy of antiviral compounds against an infectious virus in vitro using HCV producing cells (HPC), a proprietary Huh-7-derived cell sublineage capable of propagating the JFH-1 HCV virus. The readout of the assay is quantification of HCV core protein by ELISA 5 days post infection with JFH-1 virus and treatment with a test compound.
Ninety-six-well Corning Costar plates were seeded with HPC cells at a density of 3.0×10^3 cells per well in 50 μL of Huh-7 media. Compound stock solutions were made up freshly in Huh-7 media (DMEM (containing glucose, L-glutamine and sodium pyruvate), 10% FBS, 100 IU/mL penicillin, 100 μg/mL streptomycin, 2 mM GlutaMAX, 1% MEM non-essential amino acids) as 2× stock. Seven additional 3-fold drug dilutions were prepared from the 2× stocks in Huh-7 media. At least 4 hours after HPC cells were seeded, the media in the 96-well culture plates was aspirated and 50 μL of each drug dilution and 50 μL of JFH-1 HCV was added to each well.
At 16 hrs post treatment and infection, the virus inoculum was removed by aspiration. The cultures were treated at the same final concentrations of drug diluted to 1× in Huh-7 media to a final volume of 200 μL. Cells were incubated in the presence of drug for 4 additional days at 37° C./5% CO2.
Media was removed from the plates by aspiration. Cells were fixed with 250 μL 1:1 acetone:methanol for 90 seconds, washed once in PBS and then three times with 1×KPL wash solution. The assay plates were then blocked with 150 μL/well 10% FBS-TNE (50 mM Tris-HCl (pH 7.5; Sigma), 100 mM NaCl, 1 mM EDTA with 10% FBS) for 1 hr at room temperature. Cells were washed three times with 1×KPL wash solution and incubated with 100 μL/well anti-hepatitis C core mAb (1 mg/mL stock diluted 1:500 in 10% FBS-TNE) for 2 hours at 37° C. Cells were washed three times with 1×KPL wash solution and incubated with 100 μL/well HRP-goat anti-mouse antibody (diluted 1:2,500 in 10% FBS-TNE) for 1 hr at 37° C.
OPD solution was prepared using 1 OPD tablet+12 mL citrate/phosphate buffer (16 mM citric acid, 27 mM Na2HPO4) plus 5 μL 30% H2O2 per plate. Cells were washed three times with 1×KPL wash solution and developed with 100 μL/well OPD solution for 30 minutes in the dark at room temperature. The reaction was stopped with 100 μL/well of 2NH2SO4, and absorbance measured at A490 nm in a Victor^3 V 1420 multilabel counter (Perkin Elmer). The EC50 values for each compound were calculated from dose response curves from the resulting best-fit equations determined by Microsoft Excel and XLfit 4.1 software. The negative control for inhibition of virus replication was untreated HPC cells infected with the JFH-1 HCV virus strain. The negative ELISA control was untreated, uninfected HPC cells. The positive ELISA control was untreated HPC cells infected the JFH-1 HCV virus strain.

Data set [6] concerns mutant protease R155Q. Put plainly: Resistance profile, mutant protease R155Q. It is filed as biochemical, HCV. The following applies: ratio of inhibitory activity against mutant enzyme over non-mutant enzyme. The protocol:
as §1, §2

Data set [7] has as its system mutant protease A156S. Nature of the data set: Resistance profile, mutant protease A156S. It is filed as biochemical, HCV. The following applies: ratio of inhibitory activity against mutant enzyme over non-mutant enzyme. The protocol: as §1, §2
A short description of data set [8]: Cytotoxicity (CC50) in the genotype 1b replicon assay. It is filed as cell-based. The following applies: human, genotype 1b replicon assay as described in Example 32. The protocol:
as §3
(§4) Compounds were tested in a genotype 1b replicon assay as described in Example 32 and the results are summarized in Table 6, wherein A represents a value smaller than 1 μM, and B represents a value between 1 μM to 10 μM, C represents a value between 10 μM to 75 μM and D represents a value greater than 75 μM.

The subject of data set [9] is genotype 1b replicon. Put plainly: Antiviral activity in a genotype 1b replicon assay. It is filed as cell-based, HCV. The following applies: Hepatitis C virus. The protocol: General procedure: Huh-7 cells containing HCV Con1 subgenomic replicon (GS4.1 cells) were grown in Dulbecco's Modified Eagle Medium (DMEM) supplemented with 10% fetal bovine serum (FBS), 2 mM L-glutamine, 110 mg/L sodium pyruvate, 1× non-essential amino acids, 100 U/mL penicillin-streptomycin, and 0.5 mg/mL G418 (Invitrogen). For dose-response testing, the cells were seeded in 96-well plates at 7.5×10^3 cells/well in a volume of 50 μL, and incubated at 37° C./5% CO2. Three hours after plating, 50 μL of ten 2-fold serial dilutions of compounds (highest concentration, 75 μM) were added, and cell cultures were incubated at 37° C./5% CO2 in the presence of 0.5% DMSO. Alternatively, compounds were tested at a single concentration of 15 μM. In all cases, Huh-7 cells lacking the HCV replicon served as negative control. The cells were incubated in the presence of compounds for 72 hr after which they were monitored for expression of the NS4A protein by enzyme-linked immunosorbent assay (ELISA). For this, the plates were then fixed for 1 min with acetone/methanol (1:1, v/v), washed twice with phosphate-buffered saline (PBS), 0.1% Tween 20, blocked for 1 hr at room temperature with TNE buffer containing 10% FBS and then incubated for 2 hr at 37° C. with the anti-NS4A mouse monoclonal antibody A-236 (ViroGen) diluted in the same buffer. After washing three times with PBS, 0.1% Tween 20, the cells were incubated 1 hr at 37° C. with anti-mouse immunoglobulin G-peroxidase conjugate in TNE, 10% FBS. After washing as described above, the reaction was developed with O-phenylenediamine (Zymed). The reaction was stopped after 30 min with 2 NH2SO4, and absorbance was read at 492 nm using Sunrise Tecan spectrophotometer. EC50 values were determined from the % inhibition versus concentration data using a sigmoidal non-linear regression analysis based on four parameters with Tecan Magellan software. When screening at a single concentration, the results were expressed as % inhibition at 15 μM.
as §4

[10] abbreviates: genotype 1b replicon assay as described in Example 32, read-out: EC50.

T1 sequence (P26663 1027-1208): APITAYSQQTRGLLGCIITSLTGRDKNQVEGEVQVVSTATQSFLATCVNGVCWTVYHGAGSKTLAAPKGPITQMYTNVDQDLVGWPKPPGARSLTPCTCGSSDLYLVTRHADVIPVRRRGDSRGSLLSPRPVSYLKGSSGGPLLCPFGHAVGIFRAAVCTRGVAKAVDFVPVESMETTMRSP

As a reminder, the IC50 is the concentration that gives 50% inhibition. Low readings indicate greater potency, high ones weaker potency. Broadly, the EC50 is the concentration giving half of the maximal effect. One may read the CC50 as the concentration that lowers cell viability or growth by half. For the molecule `COc1ccc2c(O[C@H]3C[C@H]4C(=O)N(C)CCCC/C=C\[C@@H]5C[C@@]5(C(=O)NS(=O)(=O)C5(C)CC5)NC(=O)N4C3)cc(-c3nc(C(C)C)cs3)nc2c1C` [Compound 56b, (Z)-(4R,6S,15S,17S)-[17-[7-methoxy-8-methyl-2-(4-isopropylthiazol-2-yl)quinolin-4-yloxy]-13-N-methyl-2,14-dioxo-1,3,13-triazatricyclo[13.3.0.0]octadec-7-en-4-yl]carbonyl(1-methyl-cyclopropyl)sulfonamide], the “Fold-Change D168A” value in data set [1] is reported as “C (C represents a value greater than 10)”. In data set [2], the IC50 was under 1 µM. Moreover, the EC50 in data set [3] is under 1 µM; in data set [5], 1 to 10 µM; in [9] (setting [10]), under 1 µM. In addition, the CC50 in data set [4] is over 75 µM; in [8], 10 to 75 µM. The “Fold-Change R155Q” value in data set [6] is reported as “A (A represents a value smaller than 1)”. In [7], the “Fold-Change A156S” value is reported as “A (A represents a value smaller than 1)”.
As for `COc1ccc2c(O[C@H]3C[C@H]4C(=O)N(C)CCCC/C=C\[C@@H]5C[C@@]5(C(=O)NS(=O)(=O)C5(C)CC5)NC(=O)N4C3)cc(-c3nc(C(C)C)cs3)nc2c1Cl` [Compound 56d, (Z)-(4R,6S,15S,17S)-[17-[8-chloro-7-methoxy-2-(4-isopropylthiazol-2-yl)quinolin-4-yloxy]-13-N-methyl-2,14-dioxo-1,3,13-triazatricyclo[13.3.0.0]octadec-7-en-4-yl]carbonyl(1-methyl-cyclopropyl)sulfonamide], the “Fold-Change D168A” value in [1] was “C (C represents a value greater than 10)”. The same molecule had an IC50 in [2] of under 1 µM. Further, the EC50 in [3], in data set [5] and in data set [9] was under 1 µM each time. Further, the CC50 in [4] was over 75 µM; in data set [8] (GS4.1 cells) it was 10 to 75 µM. Besides, the “Fold-Change R155Q” value in data set [6] was “A (A represents a value smaller than 1)”. Further, the “Fold-Change A156S” value in data set [7] is on record as “A (A represents a value smaller than 1)”.
Consider `COc1ccc2c(O[C@H]3C[C@H]4C(=O)N(C)CCCC/C=C\[C@@H]5C[C@@]5(C(=O)NS(=O)(=O)C5CC5)NC(=O)N4C3)cc(-n3ccc(C(F)(F)F)n3)nc2c1Cl` [Compound 91e, (Z)-(4R,6S,15S,17S)-[17-[8-chloro-7-methoxy-2-(3-trifluoromethyl-1H-pyrazol-1-yl)quinolin-4-yloxy]-13-N-methyl-2,14-dioxo-1,3,13-triazatricyclo[13.3.0.0]octadec-7-ene-4-yl]carbonyl(cyclopropyl)sulfonamide], for which the “Fold-Change D168A” value in data set [1] was “C (C represents a value greater than 10)”. The IC50 in [2] was under 1 µM. Moreover, the EC50 in [3], in data set [5] and in data set [9] (setting [10]) was under 1 µM each time. The values for the CC50 in data set [4] and in data set [8] (GS4.1 cells) were over 75 µM and 10 to 75 µM, respectively. Besides, the “Fold-Change R155Q” value in data set [6] is listed as “A (A represents a value smaller than 1)”. Further, the “Fold-Change A156S” value in data set [7] was “A (A represents a value smaller than 1)”.

The values are drawn from patent US8003659B2, “Macrocyclic serine protease inhibitors” (Indenix Pharmaceuticals, Inc., priority 2008, dated 2011).
